These molecules were tested against Keap1 (Homo sapiens (Human), UniProt Q14145) (assay: HEK293 ARE luciferase assay). Details: HEK-293 ARE firefly luciferase transiently transfected cells; 18 h incubation; mean of 1 to 20 individual measurements.
Type: cell-based
In short: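 Transiently transfected HEK-293 ARE firefly luciferase cells (10,000/well, DMEM with 10% FCS) exposed to compound, 10-point curve from 100 μM top, 0.3% DMSO, 18 h at 37 °C. SteadyGlo luminescence; activity normalised to 30 μM tBHQ (stimulator) and DMSO (neutral), activity threshold 50; means of 1-20 measurements.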

Keap1, sequence (Q14145 whole entry): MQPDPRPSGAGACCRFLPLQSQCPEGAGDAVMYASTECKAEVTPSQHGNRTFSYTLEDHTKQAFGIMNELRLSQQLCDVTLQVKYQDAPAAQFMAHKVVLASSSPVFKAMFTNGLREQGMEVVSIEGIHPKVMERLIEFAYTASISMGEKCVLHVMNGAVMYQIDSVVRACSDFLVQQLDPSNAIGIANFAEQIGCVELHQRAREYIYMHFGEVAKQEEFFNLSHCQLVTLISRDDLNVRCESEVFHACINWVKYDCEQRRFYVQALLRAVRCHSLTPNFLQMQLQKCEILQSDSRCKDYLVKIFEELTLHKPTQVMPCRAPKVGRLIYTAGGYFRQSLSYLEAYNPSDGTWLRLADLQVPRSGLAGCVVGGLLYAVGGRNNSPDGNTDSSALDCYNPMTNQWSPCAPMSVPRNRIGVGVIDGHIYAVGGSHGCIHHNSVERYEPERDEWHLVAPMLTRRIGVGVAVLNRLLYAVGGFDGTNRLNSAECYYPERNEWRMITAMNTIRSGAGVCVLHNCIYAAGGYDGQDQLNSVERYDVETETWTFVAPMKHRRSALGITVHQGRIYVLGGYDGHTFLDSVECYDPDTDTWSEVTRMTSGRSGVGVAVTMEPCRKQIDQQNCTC

Row | Structure (SMILES) | EC50
1 | COC1(c2ncc(C(F)(F)F)cn2)C=C(C#N)C(=O)C(C)(C)C1 (single isomer, unassigned) [Compound 211, 3-methoxy-5,5-dimethyl-6-oxo-3-[5-(trifluoromethyl)pyrimidin-2-yl]cyclohex-1-ene-1-carbonitrile] | 4 nM
2 | COC1(c2ncc(F)cc2-c2cn(C)nc2C)C=C(C#N)C(=O)C(C)(C)C1 (centres unmarked) [Compound 172, 3-[3-(1,3-dimethyl-1H-pyrazol-4-yl)-5-fluoropyridin-2-yl]-3-methoxy-5,5-dimethyl-6-oxocyclohex-1-ene-1-carbonitrile] | 8 nM
3 | COC1CN(c2cccc(C3(OC)C=C(C#N)C(=O)C(C)(C)C3)n2)C1 (centres unmarked) [Compound 8, 3-methoxy-3-[6-(3-methoxyazetidin-1-yl)-2-pyridyl]-5,5-dimethyl-6-oxo-cyclohexene-1-carbonitrile] | 186 nM
4 | COC1(c2ncc(F)cc2-c2cncc(C(F)(F)F)c2)C=C(C#N)C(=O)C(C)(C)C1 (single isomer, unassigned) [Compound 215, 3-[5-fluoro-5′-(trifluoromethyl)[3,3′-bipyridin]-2-yl]-3-methoxy-5,5-dimethyl-6-oxocyclohex-1-ene-1-carbonitrile] | 15 nM
5 | COC1(c2ncc(F)cc2F)C=C(C#N)C(=O)C(C)(C)C1 (single isomer, unassigned) [Compound 44, 3-(3,5-difluoropyridin-2-yl)-3-methoxy-5,5-dimethyl-6-oxocyclohex-1-enecarbonitrile] | 37 nM
6 | COC1(c2ncc(F)cc2C)C=C(C#N)C(=O)C2(CCCC2)C1 (single isomer, unassigned) [Compound 68, 9-(5-fluoro-3-methylpyridin-2-yl)-9-methoxy-6-oxospiro[4.5]dec-7-ene-7-carbonitrile] | 70 nM
7 | COC1(c2ncccc2C(F)(F)F)C=C(C#N)C(=O)C2(CCCC2)C1 (single isomer, unassigned) [Compound 66, 9-methoxy-6-oxo-9-[3-(trifluoromethyl)pyridin-2-yl]spiro[4.5]dec-7-ene-7-carbonitrile] | 126 nM
8 | CCOC1(c2ccc(F)cn2)C=C(C#N)C(=O)C(C)(C)C1 (single isomer, unassigned) [Compound 37, 3-ethoxy-3-(5-fluoropyridin-2-yl)-5,5-dimethyl-6-oxocyclohex-1-enecarbonitrile] | 86 nM
9 | COC1(c2ncc(C)s2)C=C(C#N)C(=O)C2(CC2)C1 (centres unmarked) [Compound 64, 7-methoxy-7-(5-methyl-1,3-thiazol-2-yl)-4-oxospiro[2.5]oct-5-ene-5-carbonitrile] | 145 nM
10 | CC1(C)CC(O)(c2ccc(C(F)(F)F)cn2)C=C(C#N)C1=O (centres unmarked) [Compound 24, 3-hydroxy-5,5-dimethyl-6-oxo-3-[5-(trifluoromethyl)-2-pyridyl]cyclo-hexene-1-carbonitrile] | > 10000 nM
11 | COC1(c2ncc(Cl)cc2F)C=C(C#N)C(=O)C2(CC2)C1 (centres unmarked) [Compound 157, 7-(5-chloro-3-fluoropyridin-2-yl)-7-methoxy-4-oxospiro[2.5]oct-5-ene-5-carbonitrile] | 448 nM
12 | COC1(c2ncc(Cl)cc2F)C=C(C#N)C(=O)C2(CC2)C1 (single isomer, unassigned) [Compound 61, 7-(5-chloro-3-fluoropyridin-2-yl)-7-methoxy-4-oxospiro[2.5]oct-5-ene-5-carbonitrile] | 79 nM
13 | COC1(c2ccc(C)nc2C)C=C(C#N)C(=O)C(C)(C)C1 (centres unmarked) [Compound 29, 3-(2,6-dimethylpyridin-3-yl)-3-methoxy-5,5-dimethyl-6-oxocyclohex-1-enecarbonitrile] | 91 nM
14 | COC1(c2ccc(Br)cn2)C=C(C#N)C(=O)C(C)(C)C1 (centres unmarked) [Compound 113, 3-(5-bromopyridin-2-yl)-3-methoxy-5,5-dimethyl-6-oxocyclohex-1-ene-1-carbonitrile] | 343 nM
15 | COC1(c2cccc(-c3c(C)noc3C)n2)C=C(C#N)C(=O)C2(CC2)C1 (centres unmarked) [Compound 130, 7-[6-(3,5-dimethyl-1,2-oxazol-4-yl)pyridin-2-yl]-7-methoxy-4-oxospiro[2.5]oct-5-ene-5-carbonitrile] | 153 nM
16 | COC1(c2ncc(F)cc2-c2cnc(C(F)(F)F)nc2)C=C(C#N)C(=O)C(C)(C)C1 (single isomer, unassigned) [Compound 210, 3-{5-fluoro-3-[2-(trifluoromethyl)pyrimidin-5-yl]pyridin-2-yl}-3-methoxy-5,5-dimethyl-6-oxocyclohex-1-ene-1-carbonitrile] | 20 nM
17 | COC1(c2ncc(F)cc2-c2ccc(=O)n(C)c2)C=C(C#N)C(=O)C(C)(C)C1 (centres unmarked) [Compound 167, 3-(5-fluoro-1′-methyl-6′-oxo[1′,6′-dihydro[3,3′-bipyridine]]-2-yl)-3-methoxy-5,5-dimethyl-6-oxocyclohex-1-ene-1-carbonitrile] | 18 nM
18 | COC1(c2cccc(-c3ccccc3F)n2)C=C(C#N)C(=O)C(C)(C)C1 (centres unmarked) [Compound 118, 3-[6-(2-fluorophenyl)pyridin-2-yl)-3-methoxy-5,5-dimethyl-6-oxocyclohex-1-ene-1-carbonitrile] | 355 nM

Row | Structure (SMILES) | EC50
19 | COC1(c2ncc(F)cc2-c2ccn3ncnc3c2)C=C(C#N)C(=O)C(C)(C)C1 (centres unmarked) [Compound 188, 3-[5-fluoro-3-([1,2,4]triazolo[1,5-a]pyridin-7-yl)pyridin-2-yl]-3-methoxy-5,5-dimethyl-6-oxocyclohex-1-ene-1-carbonitrile] | 23 nM
20 | COC1(c2ccc(F)cn2)C=C(C#N)C(=O)C(C)(C)C1 (single isomer, unassigned) [Compound 27, 3-(5-fluoropyridin-2-yl)-3-methoxy-5,5-dimethyl-6-oxocyclohex-1-enecarbonitrile] | 180 nM
21 | COC1(c2ncccc2-c2cnn(C)c2)C=C(C#N)C(=O)C(C)(C)C1 (single isomer, unassigned) [Compound 23, 3-methoxy-5,5-dimethyl-3-(3-(1-methyl-1H-pyrazol-4-yl)pyridin-2-yl)-6-oxocyclohex-1-enecarbonitrile] | 56 nM
22 | COC1(c2ncc(F)cc2-c2cnn(C)c2C)C=C(C#N)C(=O)C(C)(C)C1 (centres unmarked) [Compound 164, 3-[3-(1,5-dimethyl-1H-pyrazol-4-yl)-5-fluoropyridin-2-yl]-3-methoxy-5,5-dimethyl-6-oxocyclohex-1-ene-1-carbonitrile] | 28 nM
23 | COC1(c2ncc(F)cc2-c2cccnc2C)C=C(C#N)C(=O)C(C)(C)C1 (single isomer, unassigned) [Compound 79, 3-[5-fluoro-3-(2-methyl-3-pyridyl)-2-pyridyl]-3-methoxy-5,5-dimethyl-6-oxo-cyclohexene-1-carbonitrile] | 74 nM
24 | COC1(c2ncc(Cl)cc2Cl)C=C(C#N)C(=O)C(C)(C)C1 (single isomer, unassigned) [Compound 225, 3-(3,5-dichloropyridin-2-yl)-3-methoxy-5,5-dimethyl-6-oxocyclohex-1-ene-1-carbonitrile] | 12 nM
25 | COC1(c2cccc(N3CCOCC3)n2)C=C(C#N)C(=O)C(C)(C)C1 (centres unmarked) [Compound 110, 3-methoxy-5,5-dimethyl-3-[6-(morpholin-4-yl)pyridin-2-yl]-6-oxocyclohex-1-ene-1-carbonitrile] | 109 nM
26 | COC1(c2ncc(F)cc2-c2cncc(S(C)(=O)=O)c2)C=C(C#N)C(=O)C(C)(C)C1 (centres unmarked) [Compound 96, 3-(5-fluoro-5′-(methylsulfonyl)-[3,3′-bipyridin]-2-yl)-3-methoxy-5,5-dimethyl-6-oxocyclohex-1-ene-1-carbonitrile] | 7 nM
27 | COC1(c2ncc(F)cc2OC(F)F)C=C(C#N)C(=O)C(C)(C)C1 (centres unmarked) [Compound 174, 3-[3-(difluoromethoxy)-5-fluoropyridin-2-yl]-3-methoxy-5,5-dimethyl-6-oxocyclohex-1-ene-1-carbonitrile] | 41 nM
28 | COC1(c2ncc(F)cc2-c2ccnc(C)c2)C=C(C#N)C(=O)C(C)(C)C1 (centres unmarked) [Compound 170, 3-(5-fluoro-2′-methyl[3,4′-bipyridin]-2-yl)-3-methoxy-5,5-dimethyl-6-oxocyclohex-1-ene-1-carbonitrile] | 12 nM
29 | COC1(c2ncc(Cl)cc2C(F)F)C=C(C#N)C(=O)C(C)(C)C1 (centres unmarked) [Compound 158, 3-[5-chloro-3-(difluoromethyl)pyridin-2-yl]-3-methoxy-5,5-dimethyl-6-oxocyclohex-1-ene-1-carbonitrile] | 21 nM
30 | COC1(c2ccccn2)C=C(C#N)C(=O)C2(CC2)C1 (single isomer, unassigned) [Compound 56, 7-methoxy-4-oxo-7-(pyridin-2-yl)spiro[2.5]oct-5-ene-5-carbonitrile] | 179 nM
31 | COC1(c2ncc(F)cc2-c2ccnc(C)c2C)C=C(C#N)C(=O)C(C)(C)C1 (single isomer, unassigned) [Compound 82, 3-[3-(2,3-dimethyl-4-pyridyl)-5-fluoro-2-pyridyl]-3-methoxy-5,5-dimethyl-6-oxo-cyclohexene-1-carbonitrile] | 52 nM
32 | COC1(c2ncc(F)cc2C(F)F)C=C(C#N)C(=O)C(C)(C)C1 (centres unmarked) [Compound 152, 3-[3-(difluoromethyl)-5-fluoropyridin-2-yl]-3-methoxy-5,5-dimethyl-6-oxocyclohex-1-ene-1-carbonitrile] | 47 nM
33 | [2H]C([2H])([2H])OC1(c2cccc(-c3cnn(C)c3)n2)C=C(C#N)C(=O)C(C)(C)C1 (single isomer, unassigned) [Compound 14, 5,5-Dimethyl-3-[6-(1-methylpyrazol-4-yl)-2-pyridyl]-6-oxo-3-(trideuterio-methoxy)cyclohexene-1-carbonitrile] | 12 nM
34 | COC1(c2ncc(F)cc2-c2cnn(C3CC3)c2)C=C(C#N)C(=O)C(C)(C)C1 (centres unmarked) [Compound 166, 3-[3-(1-cyclopropyl-1H-pyrazol-4-yl)-5-fluoropyridin-2-yl]-3-methoxy-5,5-dimethyl-6-oxocyclohex-1-ene-1-carbonitrile] | 14 nM
35 | COC1(c2cccc(-c3c(C)noc3C)n2)C=C(C#N)C(=O)C(C)(C)C1 (centres unmarked) [Compound 105, 3-(6-(3,5-dimethylisoxazol-4-yl)pyridin-2-yl)-3-methoxy-5,5-dimethyl-6-oxocyclohex-1-ene-1-carbonitrile] | 36 nM

— patent publication US11479539B2, “Small molecule modulators of the BTB domain of Keap1” (MedImmune Limited, priority 2017, dated 2022)
